Data as given in patent US20100160228A1, “METHOD FOR INHIBITING OR STIMULATING ANGIOGENESIS IN AN INDIVIDUAL” (VALTION TEKNILLINEN TUTKIMUSKESKUS, priority 2007, published 2010).

Legend:
[1] = target: T1, Recombinant, purified TCPTP (Homo sapiens, UniProt P17706); experiment: In vitro phosphatase assay with purified TCPTP protein (diFMUP substrate); assay type: biochemical; conditions: TAT peptides of D-amino acids, FIG. 4C
T1 construct: made in house
T1 sequence (P17706 1-387 isoform P17706-2): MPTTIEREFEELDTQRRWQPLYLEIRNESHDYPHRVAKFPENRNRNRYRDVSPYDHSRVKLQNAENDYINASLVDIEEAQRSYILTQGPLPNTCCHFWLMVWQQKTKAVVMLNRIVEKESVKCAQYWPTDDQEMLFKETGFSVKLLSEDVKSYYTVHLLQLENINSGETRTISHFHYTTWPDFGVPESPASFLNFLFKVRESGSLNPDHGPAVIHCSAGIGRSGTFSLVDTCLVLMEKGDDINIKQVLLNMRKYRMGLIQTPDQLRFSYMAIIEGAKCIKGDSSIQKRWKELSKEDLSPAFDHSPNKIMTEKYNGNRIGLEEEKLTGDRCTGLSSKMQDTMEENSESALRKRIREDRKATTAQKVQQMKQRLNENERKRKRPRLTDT
Method: (§1) FIG. 4. α1 integrin activates TCPTP and attenuates VEGFR2 signalling. (A) Serum-starved subconfluent HUVEC were treated for 1 h with α1 integrin cytoplasmic tail fusion peptide (α1TAT) or TAT-scramble control fusion peptide (ScrTAT) (both at 200 nM) followed by VEGF-induction (100 ng/ml, 15 min) where indicated. Cell lysates were resolved on SDS-PAGE and immunoblotted for phosphorylated VEGFR2 (or tubulin as a control). (B) HUVEC were treated as in (A) and VEGFR2 kinase activity (mean±SD, n=3) was measured from the cell lysates. **, p<0.01. (C) Recombinant, purified TCPTP was incubated with α1 or α2 cytoplasmic tail peptides (L-amino acids) or with α1 and scrambled TAT peptides (D-amino acids) and analyzed for phosphatase activity (mean±SD, n=3).
Phosphatase and kinase assays. Phosphatase assays were performed as described (8). Briefly, HUVEC were plated to collagen or gelatin coated plates and allowed to adhere for 1 h. TCPTP, SHP2 and control immunocomplexes were isolated from cell lysates, resuspended in the phosphatase assay buffer and assayed for phosphatase activity using 6,8-difluoro-4-methylumbelliferyl phosphate; Molecular Probes) as a substrate in the presence of a serine/threonine phosphatase inhibitor cocktail (Sigma). Thereafter, the antigens from the beads were used for immunoblotting. […]

[2] = system: VEGFR2; experiment: Immunoblot of phosphorylated VEGFR2 in HUVEC lysates; assay type: cell-based, human; conditions: for effect on VEGFR2 phosphorylation in confluent cells: confluent HUVEC, FIG. 10A; for effect on VEGFR2 phosphorylation in confluent cells / effect of TAT peptides on VEGFR2 phosphorylation: peptide 200 nM
Method: as §1
FIG. 10. […] (A) Serum-starved HUVEC were plated to confluency on gelatin and treated for 1 h with α1 integrin cytoplasmic tail fusion peptide (α1TAT) or TAT-scramble control fusion peptide (ScrTAT) (both at 200 nM) or not treated, followed by VEGF-induction (15 min) when indicated. Cell lysates were immunoblotted for phosphorylated VEGFR2 (or tubulin as a control). (B) Confluent HUVEC on gelatin were treated with VEGF in the presence or absence of α1TAT or ScrTAT peptide and the number of live cells was detected using WST-1 reagent (mean±SD, n=3). (C) α1TAT treatment has no effect on internalization of VEGFR2 in confluent HUVEC. HUVEC were plated to confluency on gelatin, stimulated or not with the TAT peptides (200 nM) and VEGF, and treated with trypsin on ice. Cells were lysed after inactivation of trypsin and the lysates were immunoblotted for detection of VEGFR2 protected from trypsin (=internalized pool). The intensity of VEGFR2 bands was quantitated using densitometry (a representative experiment out of 3 with similar results is shown).

[3] = target: VEGFR2; experiment: VEGFR2 kinase activity from HUVEC lysates (Kinase-Glo Plus); assay type: cell-based, human; conditions: FIG. 4B
Method: as §1, with “(A)” for “FIG. 4. α1 integrin activates TCPTP and attenuates VEGFR2 signalling. (A)”
VEGFR2 kinase activity was studied using Kinase-Glo Plus kinase assay kit according to manufacturer's protocol (Promega) with 25 µM ATP. Briefly, HUVEC plated on gelatin were serum-starved overnight, treated with 400 nM α1TAT or ScrTAT or left untreated and stimulated with 100 ng/ml VEGF for 15 min, when indicated. The cells were lysed to ice-cold lysis buffer (1% NP-40, 20 mM Hepes pH 7.4, 150 mM NaCl, 10% glycerol, 2.5 mM EDTA, complete protease inhibitor (Roche) and phosphatase inhibitor coctails I and II (Sigma)). The lysates were incubated in anti-VEGFR2 or control IgG-coated wells with shaking for 2 h and washed 3 times with lysis buffer and 3 times with cold kinase assay buffer (20 mM Hepes pH 8, 0.1 mM Na3VO4, 10 mM MnCl2, 1 mM DTT). Kinase assay was performed for 10 min at +37° C.

[4] = system: HUVEC; experiment: VEGF-induced HUVEC proliferation assay; assay type: cell-based, human; conditions: subconfluent HUVEC on gelatine, compared to no peptide treatment, n=3
Method: FIG. 3. TCPTP activity controls VEGF-dependent responses in endothelial cells. (A) HUVEC were transfected with the constitutively active TCPTP (TC37) or vector control (pCG), stimulated or not with VEGF, and stained for VEGFR2 (red) and nuclei (blue) after fixation and permeabilization. Arrows indicate VEGFR2 vesicles. (B) HUVEC were treated as in (A) and subjected to trypsin digestion on ice. VEGFR2 protected from trypsin (=internalized pool) was detected by immunoblotting. The intensities of VEGFR2 bands were quantified and are expressed relative to pCG-VEGF control. A representative experiment out of 2 with similar results is shown. (C) HUVEC were transfected with no oligo, siRNA against TCPTP or a control siRNA, and TCPTP expression was measured using immunoblotting. […] (D) HUVEC were transfected as in (A) and chemotaxis towards VEGF was measured using a Transwell assay for 4 hours. […] Number of migrated cells was counted (mean±SEM, n=3).
Cell proliferation and survival assays. The number of viable HUVEC was analyzed with WST-1 reagent (Roche). Cell proliferation was measured with BrdU assay (Cell proliferation ELISA Biotrak system, Amersham) from siRNA-transfected HUVEC grown in RPMI1640+1% FBS+2 mM L-glutamine supplemented with 80 ng/ml VEGF.

| Sequence | activation of TCPTP phosphatase activity [1] | effect on VEGFR2 phosphorylation in confluent cells [2] | VEGF-induced autophosphorylation of VEGFR2 at tyrosine 1214 ([2]; subconfluent HUVEC, peptide 200 nM 1 h, VEGF 100 ng/ml 15 min, FIG. 4A) | effect of TAT peptides on VEGFR2 phosphorylation ([2]; subconfluent HUVEC, FIG. 4A) | kinase activity of VEGFR2 in VEGF-treated HUVEC ([3]; VEGF 100 ng/ml 15 min) | inhibition of VEGF-induced proliferation [4] [%] | increase of VEGFR2 kinase activity upon VEGF-stimulation ([3]; HUVEC treated with no peptide or with scrambled control TAT peptide) |
| --- | --- | --- | --- | --- | --- | --- | --- |
| YGRKKRRQRRRWKLGFFKRPLKKKMEK (SEQ ID NO 3) [α1TAT] | very good activator | no effects | markedly inhibited | effectively attenuated | completely abolished | 74±8 | – |
| YGRKKRRQRRRLKGWRFKLKPKFKEMK (SEQ ID NO 8) [ScrTAT, reference compound] | no effect | no effects | – | induced a clear phosphorylation | – | 4±4 | about 10 fold |
